Test results: paper PMC6057649, “Development of NanoLuc-PEST expressing Leishmania mexicana as a new drug discovery tool for axenic- and intramacrophage-based assays” (PLoS Neglected Tropical Diseases, 2018)
pEC50: −log10 of the molar value. Like-named read-outs stand apart in the source and are kept apart here.

Tested on: NanoLuc-PEST expressing L. mexicana axenic amastigotes
Test: microbe, parasite or virus in culture
Type: cell-based
Conditions: for viability at 2 µM / viability at 10 µM: read-out: Relative Bioluminescence (%); for pEC50: read-out: EC50, Axenic Amastigotes
[1] = Leishmania mexicana, 2 µM compound, 72 hours, relative to DMSO only control, n = 4
[2] = Leishmania mexicana, 10 µM compound, 72 hours, relative to DMSO only control, n = 4
[3] = 2 µM compound, 72 hours, relative to DMSO only control, n = 4
[4] = 10 µM compound, 72 hours, relative to DMSO only control, n = 4
[5] = hit compounds from the axenic amastigote screen, S3 Table

| SMILES | Relative Bioluminescence (%) [3] [%] | Relative Bioluminescence (%) [4] [%] | also measured |
| --- | --- | --- | --- |
| C[C@H]1c2cccc(O)c2C(=O)C2=C(O)[C@]3(O)C(=O)C(C(N)=O)=C(O)[C@@H](N(C)C)[C@@H]3[C@@H](O)[C@@H]21 [MMV000011, Doxycycline, reference compound] |  |  | viability at 2 µM [1]: 95%; viability at 10 µM [2]: 94.7% |
| OC(c1cc(C(F)(F)F)nc2c(C(F)(F)F)cccc12)C1CCCCN1 (stereo not drawn) [MMV000014, Mefloquine, reference compound] |  |  | viability at 2 µM [1]: 93.4%; viability at 10 µM [2]: 109% |
| COc1cc(NC(C)CCCN)c2ncccc2c1 (stereo not drawn) [MMV000023, Primaquine, reference compound] |  |  | viability at 2 µM [1]: 55%; viability at 10 µM [2]: 76.8% |
| N=C(N)c1ccc(OCCCCCOc2ccc(C(=N)N)cc2)cc1 [MMV000062, Pentamidine, reference compound] |  |  | viability at 2 µM [1]: 72.2%; viability at 10 µM [2]: 96.8% |
| CCN(CC)CCCCCCNc1cc(OC)cc2c(C)ccnc12 [MMV000063, Sitamaquine, reference compound] |  |  | viability at 2 µM [1]: 69.6%; viability at 10 µM [2]: 73.6% |
| O=S(=O)(c1ccc(Cl)cc1)N1CCN(C(=S)NCc2ccco2)CC1 [MMV000858] | 100.91 | 108.52 |  |
| COc1cccc2c(C)nc(N=C(N)N)nc12 [MMV000907] | 95.69 | 78.62 |  |
| CCCS(=O)(=O)N1CCC(CO)(Cc2ccccc2C(F)(F)F)CC1 [MMV001059] | 109.79 | 96.75 |  |
| COC(=O)C1=C(C)NC(C)=C(C(=O)OC(C)C)C1c1cccc2nonc12 (stereo not drawn) [MMV001493, Isradipine, reference compound] |  |  | viability at 2 µM [1]: 130%; viability at 10 µM [2]: 89.6% |
| CC1CS(=O)(=O)CCN1/N=C/c1ccc([N+](=O)[O-])o1 (stereo not drawn) [MMV001499, Nifurtimox, reference compound] |  |  | viability at 2 µM (Leishmania mexicana, 72 h): 7.65%; viability at 10 µM (Leishmania mexicana, 72 h): -2.17% |
| CNCCC(Oc1ccc(C(F)(F)F)cc1)c1ccccc1 (stereo not drawn) [MMV001561, Fluoxetine, reference compound] |  |  | viability at 2 µM [1]: 90.4%; viability at 10 µM [2]: 52.4% |
| NCCC[C@](N)(C(=O)O)C(F)F [MMV001625, α-Difluoromethylornithine, reference compound] | 69.72 | 81.23 |  |
| O=C(C1CCCCC1)N1CC(=O)N2CCc3ccccc3C2C1 (stereo not drawn) [MMV002529, Praziquantel, reference compound] |  |  | viability at 2 µM [1]: 64.8%; viability at 10 µM [2]: 93.8% |
| CCN(CC)C(=O)N1CCN(C)CC1 [MMV002816, Diethylcarbamazine, reference compound] |  |  | viability at 2 µM [1]: 88.8%; viability at 10 µM [2]: 62.5% |
| Oc1c(I)cc(I)c2cccnc12 [MMV002817, Iodoquinol, reference compound] |  |  | viability at 2 µM [1]: -1.49%; viability at 10 µM [2]: -1.46%; pEC50 (Leishmania mexicana, hit compounds from the axenic amastigote screen, S3 Table): 6.66 |
| COC(=O)Nc1nc2ccc(C(=O)c3ccccc3)cc2[nH]1 [MMV003152, Mebendazole, reference compound] |  |  | viability at 2 µM [1]: 0.9%; viability at 10 µM [2]: -0.49%; EC50, Axenic Amastigotes [5]: could not be resolved |
| CN1CCCN(C(c2ccccc2)c2ccc(Cl)cc2)CC1 (stereo not drawn) [MMV004168] | 64.14 | 52.89 |  |
| O=C1Nc2ccc(Br)cc2C12NCCc1c2[nH]c2ccccc12 (stereo not drawn) [MMV006239] | 107.64 | 108.03 |  |
| Cc1ccc2[nH]c3c(NCCN(C)C)ncnc3c2c1 [MMV006372] | 63.77 | 81.31 |  |

| SMILES | Relative Bioluminescence (%) [3] [%] | Relative Bioluminescence (%) [4] [%] | also measured |
| --- | --- | --- | --- |
| COc1cc2ncnc(NC3CCN(Cc4ccccc4)CC3)c2cc1OC [MMV006741] | 83.56 | 113.49 |  |
| Cc1cc(Cl)c(S(=O)(=O)N2CCCC2)cc1OCC(=O)NC1CCCCC1 [MMV006833] | 98.68 | 81.43 |  |
| CN(C)c1cc(NC(=O)Nc2ccccc2)c2ccccc2n1 [MMV006901] | 96.82 | 107.15 |  |
| Cc1cc(NC(=O)c2ccc(S(=O)(=O)N(Cc3ccccc3)C(C)C)cc2)no1 [MMV007133] | 102.77 | 71.20 |  |
| COc1cc(OC)cc(C(=O)NCC2Cc3cc(Cl)cc(-c4ccncc4)c3O2)c1 (stereo not drawn) [MMV007471] | 87.80 | 69.68 |  |
| Cc1cc(C)n(-c2ccc(NC(=O)C3CCN(Cc4cnc(C)s4)CC3)cc2)n1 [MMV007625] | 85.10 | 76.47 |  |
| CCOc1ccc(-c2nc(NC(=O)CS(=O)(=O)c3ccccc3)sc2C)cc1 [MMV007638] | 57.66 | 52.58 |  |
| O=C(NC1CC1)c1ccc(CSCc2ccccc2Cl)o1 [MMV007803] | 113.68 | 107.95 |  |
| Nc1ccc(C(=O)Nc2ccc(-c3nc4ccccc4o3)cc2)cc1 [MMV007920] | 112.76 | 88.96 |  |
| COc1ccc(CN2CCOc3ccc(C(C)(O)CN(C)C)cc3C2)cc1C (stereo not drawn) [MMV008439] | 83.20 | 126.81 |  |
| Cc1cc(C(=O)Nc2cnn(Cc3ccc(Cl)cc3Cl)c2)no1 [MMV009054] | 106.08 | 100.62 |  |
| O=C(C1CCN(c2nnnn2-c2ccccc2)CC1)N1CCc2ccccc2C1 [MMV009135] | 83.57 | 73.86 |  |
| COc1ccc(-c2cnc3ccc(NCc4ccc(S(N)(=O)=O)cc4)nn23)cn1 [MMV010545] | 70.73 | 68.48 |  |
| COc1cc(-c2cc(-c3ccc(S(C)(=O)=O)cc3)cnc2N)ccc1O [MMV010576] | 44.69 | 21.84 |  |
| c1csc(-c2cnc3sc(NCC4CCOCC4)nn23)c1 [MMV010764] | 69.50 | 31.69 |  |
| Cc1cc(Nc2ccc(C(F)(F)F)cc2)n2ccnc2n1 [MMV011229] | 102.18 | 84.66 |  |
| COc1ccc(CCN2CCC(NCc3cccc(N(C)C)c3)CC2)cc1 [MMV011511] | 78.49 | 88.55 |  |
| NCC(=O)N1CCn2c(nc(-c3ccccc3)c2Nc2ccc3c(c2)OCO3)C1 [MMV011691] | 105.27 | 73.17 |  |
| FC(F)(F)c1cnc(Sc2nnc(-c3ccncc3)o2)c(Cl)c1 [MMV011765] | 84.80 | 45.24 |  |

| SMILES | Relative Bioluminescence (%) [3] [%] | Relative Bioluminescence (%) [4] [%] | also measured |
| --- | --- | --- | --- |
| Cc1nc2ccccn2c1C(=O)NCc1ccc(Cl)cc1 [MMV012074] | 98.27 | 123.86 |  |
| Cc1cc(Nc2ccncc2)n2nc(C)c(-c3ccccc3Cl)c2n1 [MMV016136] | 83.56 | 91.85 |  |
| Cc1ccc(-c2cc(C(=O)Nc3cccnc3)c3cc(Br)ccc3n2)cc1 [MMV016838] | 44.83 | 13.69 |  |
| Cc1cc(C)n2nc(C(=O)Nc3cc(C(F)(F)F)ccc3N3CCOCC3)nc2n1 [MMV019087] | 89.61 | 89.32 |  |
| Cc1ccc2c(c1C)NC(=O)C21NN=C(c2ccccc2)S1 (stereo not drawn) [MMV019189] | -1.73 | -1.42 | pEC50 [5]: 6.49 |
| COc1ccc(C2CC(c3cccs3)=NN2C(=O)c2ccco2)cc1OC (stereo not drawn) [MMV019234] | 106.08 | 39.61 |  |
| CCC(NC(=O)c1ccccc1NC(=O)c1ccc(C)cc1)C(=O)OC (stereo not drawn) [MMV019551] | 70.29 | 42.20 |  |
| CCN(CC)S(=O)(=O)c1ccc(Cl)c(C(=O)Nc2ccc3nc(C)sc3c2)c1 [MMV019721] | 65.53 | 69.43 |  |
| Cc1ccc(S(=O)(=O)N2CCN(C(=O)c3cc(-c4ccccc4)n[nH]3)CC2)cc1 [MMV019742] | 69.14 | 102.67 |  |
| CCOc1ccccc1C(=O)Nc1cccc(-c2nc3ncccn3c2C)c1 [MMV019790] | 85.04 | 56.75 |  |
| Cc1ccc2cc(C3NC(=O)c4ccccc4N3)c(Cl)nc2c1 (stereo not drawn) [MMV019807] | 69.92 | 111.93 |  |
| O=C(Nc1ccnc(-c2cccnc2)n1)c1cc(C(F)(F)F)cc(C(F)(F)F)c1 [MMV019838] | 125.18 | 86.78 |  |
| Cc1nn(C)cc1C(C)Nc1nncc(-c2ccc(C(F)(F)F)cc2)n1 (stereo not drawn) [MMV019993] | 96.83 | 70.73 |  |
| COc1cccc(CC(=O)N2CCC(n3c(C)nc4ccc(F)cc43)CC2)c1 [MMV020081] | 98.78 | 73.47 |  |
| CC1CC1C(=O)NC1CCN(CC2(c3ccccc3)CCCCC2)CC1 (stereo not drawn) [MMV020120] | 92.92 | 99.97 |  |
| CNC(=O)c1cc(S(=O)(=O)N2CCN(c3ccccn3)CC2)cs1 [MMV020136] | 108.03 | 122.06 |  |
| Cc1cc(C(=O)Nc2ccc(-c3ccccc3)cc2)no1 [MMV020152] | 89.71 | 108.81 |  |
| CC(C)NCC(=O)Nc1cccc(C(=O)Nc2cccc(C(F)(F)F)c2)c1 [MMV020165] | 63.67 | 61.89 |  |
| Cc1ccc(NC(=O)c2cc(S(=O)(=O)NC(C)(C)C)ccc2C)nc1 [MMV020289] | 103.50 | 71.21 |  |
